Results reported in ChEMBL document CHEMBL1201862, “PubChem BioAssay data set” (2004).
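Grown in 96-well plates, cells were treated for 48 hours with each compound at five concentrations. Insufficient inhibition: endpoint recorded as highest concentration tested. At the GI50, growth is halved.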 Calls of active or inactive are those of the source. No stated cut-off is given here; in the data, active = GI50 up to about 1.1 µM and inactive = higher.

Key:
Test in all cases: NCI tumour cell line growth inhibition, 48 h
786-0 = test system: 786-0
A498 = test system: A498
A549 = test system: A549
ACHN = test system: ACHN
BT-549 = test system: BT-549
CAKI-1 = test system: CAKI-1
CCRF-CEM = test system: CCRF-CEM
COLO 205 = test system: COLO 205
DU-145 = test system: DU-145
HCC 2998 = test system: HCC 2998
HCT-116 = test system: HCT-116
HCT-15 = test system: HCT-15
HL-60 = test system: HL-60
HOP-62 = test system: HOP-62
HT-29 = test system: HT-29
Hs-578T = test system: Hs-578T
IGROV-1 = test system: IGROV-1
K562 = test system: K562
KM12 = test system: KM12
M14 = test system: M14
MCF7 = test system: MCF7
MDA-MB-231 = test system: MDA-MB-231
MDA-MB-435 = test system: MDA-MB-435
MDA-N = test system: MDA-N
MOLT-4 = test system: MOLT-4
Malme-3M = test system: Malme-3M
NCI-H226 = test system: NCI-H226
NCI-H23 = test system: NCI-H23
NCI-H460 = test system: NCI-H460
NCI-H522 = test system: NCI-H522
NCI/ADR-RES = test system: NCI/ADR-RES
OVCAR-3 = test system: OVCAR-3
OVCAR-5 = test system: OVCAR-5
OVCAR-8 = test system: OVCAR-8
PC-3 = test system: PC-3
SF-268 = test system: SF-268
SF-295 = test system: SF-295
SF-539 = test system: SF-539
SK-MEL-28 = test system: SK-MEL-28
SK-MEL-2 = test system: SK-MEL-2
SK-MEL-5 = test system: SK-MEL-5
SK-OV-3 = test system: SK-OV-3
SN12C = test system: SN12C
SNB-19 = test system: SNB-19
SNB-75 = test system: SNB-75
SR = test system: SR
SW-620 = test system: SW-620
T47D = test system: T47D
TK-10 = test system: TK-10
U-251 = test system: U-251
UACC-257 = test system: UACC-257
UACC-62 = test system: UACC-62
UO-31 = test system: UO-31
EKVX = test system: EKVX
HOP-92 = test system: HOP-92
LOX IMVI = test system: LOX IMVI
OVCAR-4 = test system: OVCAR-4
RPMI-8226 = test system: RPMI-8226

CN(C)CCNC(=O)c1cccc2c1Oc1cccc([N+](=O)[O-])c1O2
GI50 (786-0): 19.2 µM (inactive) | GI50 (A498): 15 µM (inactive) | GI50 (A549): 16 µM (inactive) | GI50 (ACHN): 18.7 µM (inactive) | GI50 (BT-549): 13.3 µM (inactive) | GI50 (CAKI-1): 18.4 µM (inactive) | GI50 (CCRF-CEM): 29.6 µM (inactive) | GI50 (COLO 205): 21.6 µM (inactive) | GI50 (DU-145): 17.7 µM (inactive) | GI50 (HCC 2998): 23.7 µM (inactive) | GI50 (HCT-116): 16.9 µM (inactive) | GI50 (HCT-15): 33.8 µM | GI50 (HL-60): 17.1 µM (inactive) | GI50 (HOP-62): 16.1 µM (inactive) | GI50 (HT-29): 15.2 µM (inactive) | GI50 (Hs-578T): 18.4 µM (inactive) | GI50 (IGROV-1): 18.9 µM (inactive) | GI50 (K562): 20 µM (inactive) | GI50 (KM12): 22.8 µM (inactive) | GI50 (M14): 16.2 µM (inactive) | GI50 (MCF7): 19.1 µM (inactive) | GI50 (MDA-MB-231): 4.33 µM (inactive) | GI50 (MDA-MB-435): 16.5 µM (inactive) | GI50 (MDA-N): 17.7 µM (inactive) | GI50 (MOLT-4): 4.74 µM (inactive) | GI50 (Malme-3M): 14.1 µM (inactive) | GI50 (NCI-H226): 12.7 µM (inactive) | GI50 (NCI-H23): 24.7 µM (inactive) | GI50 (NCI-H460): 17.3 µM (inactive) | GI50 (NCI-H522): 16.1 µM (inactive) | GI50 (NCI/ADR-RES): 19.1 µM (inactive) | GI50 (OVCAR-3): 20.8 µM (inactive) | GI50 (OVCAR-5): 20.5 µM (inactive) | GI50 (OVCAR-8): 20.8 µM (inactive) | GI50 (PC-3): 15.4 µM (inactive) | GI50 (SF-268): 21.2 µM (inactive) | GI50 (SF-295): 17.5 µM (inactive) | GI50 (SF-539): 18.2 µM (inactive) | GI50 (SK-MEL-28): 18.8 µM (inactive) | GI50 (SK-MEL-2): 23.5 µM (inactive) | GI50 (SK-MEL-5): 19.1 µM (inactive) | GI50 (SK-OV-3): 14 µM (inactive) | GI50 (SN12C): 23.3 µM (inactive) | GI50 (SNB-19): 30 µM (inactive) | GI50 (SNB-75): 13.9 µM (inactive) | GI50 (SR): 21.1 µM (inactive) | GI50 (SW-620): 19.3 µM (inactive) | GI50 (T47D): 14.8 µM (inactive) | GI50 (TK-10): 21.4 µM (inactive) | GI50 (U-251): 21 µM (inactive) | GI50 (UACC-257): 18.5 µM (inactive) | GI50 (UACC-62): 18.1 µM (inactive) | GI50 (UO-31): 15.7 µM (inactive)

COC(=O)CN(CC(=O)NCCCBr)C1CCCCC1N(CC(=O)OC)CC(=O)OC (centres undefined)
GI50 (786-0): > 100 µM (inactive) | GI50 (A498): > 100 µM (inactive) | GI50 (A549): > 100 µM (inactive) | GI50 (ACHN): > 100 µM (inactive) | GI50 (BT-549): > 100 µM (inactive) | GI50 (CAKI-1): > 100 µM (inactive) | GI50 (CCRF-CEM): > 100 µM (inactive) | GI50 (COLO 205): > 100 µM (inactive) | GI50 (DU-145): > 100 µM (inactive) | GI50 (EKVX): > 100 µM (inactive) | GI50 (HCC 2998): > 100 µM (inactive) | GI50 (HCT-116): > 100 µM (inactive) | GI50 (HCT-15): > 100 µM | GI50 (HL-60): > 100 µM (inactive) | GI50 (HOP-62): > 100 µM (inactive) | GI50 (HOP-92): 77.3 µM (inactive) | GI50 (HT-29): > 100 µM (inactive) | GI50 (Hs-578T): 53.7 µM (inactive) | GI50 (IGROV-1): > 100 µM (inactive) | GI50 (K562): > 100 µM (inactive) | GI50 (KM12): > 100 µM (inactive) | GI50 (LOX IMVI): > 100 µM (inactive) | GI50 (MCF7): > 100 µM (inactive) | GI50 (MDA-MB-231): > 100 µM (inactive) | GI50 (MDA-MB-435): > 100 µM (inactive) | GI50 (MDA-N): > 100 µM (inactive) | GI50 (MOLT-4): > 100 µM (inactive) | GI50 (NCI-H226): > 100 µM (inactive) | GI50 (NCI-H23): > 100 µM (inactive) | GI50 (NCI-H460): > 100 µM (inactive) | GI50 (NCI-H522): > 100 µM (inactive) | GI50 (NCI/ADR-RES): > 100 µM (inactive) | GI50 (OVCAR-3): > 100 µM (inactive) | GI50 (OVCAR-4): > 100 µM (inactive) | GI50 (OVCAR-5): > 100 µM (inactive) | GI50 (OVCAR-8): > 100 µM (inactive) | GI50 (PC-3): > 100 µM (inactive) | GI50 (RPMI-8226): > 100 µM (inactive) | GI50 (SF-268): > 100 µM (inactive) | GI50 (SF-295): > 100 µM (inactive) | GI50 (SF-539): > 100 µM (inactive) | GI50 (SK-MEL-28): > 100 µM (inactive) | GI50 (SK-MEL-2): > 100 µM (inactive) | GI50 (SK-MEL-5): > 100 µM (inactive) | GI50 (SK-OV-3): 32.3 µM (inactive) | GI50 (SN12C): > 100 µM (inactive) | GI50 (SNB-19): > 100 µM (inactive) | GI50 (SNB-75): 19.1 µM (inactive) | GI50 (SR): > 100 µM (inactive) | GI50 (SW-620): > 100 µM (inactive) | GI50 (T47D): > 100 µM (inactive) | GI50 (TK-10): > 100 µM (inactive) | GI50 (U-251): > 100 µM (inactive) | GI50 (UACC-257): > 100 µM (inactive) | GI50 (UACC-62): > 100 µM (inactive) | GI50 (UO-31): 84.7 µM (inactive)
